Reference: US20070117770A1, “Human ribosomal DNA (rDNA) and ribosomal RNA (rRNA) nucleic acids and uses thereof” (Cylene Pharmaceuticals, Inc., priority 2005, published 2007)
pIC50, pKd: −log10 of the molar value.

Experiments:
rRNA synthesis, HCT-116 = assay: PCR assay of rRNA synthesis from 45S rDNA (5' ETS probe); format: cell-based; details: Homo sapiens; rRNA synthesis, HCT-116; read-out: QPCRrDNA IC50_HCT-116
Protocol: Assays were conducted to determine the effects of compounds on rRNA synthesis from 45S rDNA. In particular, compound A-1 at various concentrations was incubated with cells and tested for an effect on rRNA synthesis after a two hour or four hour incubation with the compound. Synthesized rRNA was quantified by a polymerase chain reaction (PCR) assay. A primer/probe set was designed using Primer Express software and synthesized by Applied Biosystems. The 5′ ETS Probe utilized had the following sequence (@ its 3′ end): 6FAM-TTG ATC CTG CCA GTA GC-MGBNFQ (SEQ ID NO:227). The primer sequences were as follows:
(§1) Mix • 1 ug RNA • 2.5 ul 10× Taq Man buffer • 5.5 ul 25 mM MgCl2 • 5 ul of a mix of dNTP (500 uM each) • 1.2 ul random hexamer primer (2.5 uM stock) • 0.5 ul RNase inhibitor (0.4 units/ul) • 0.6 ul Reverse Transcriptase (1.2 units/ul) • bring to 25 ul total volume with water
(§2) Mix • 5 ul Reverse Transcriptase reaction product • 12.5 ul 2×PCR mix • 1 uM forward primer • 1 uM reverse primer • 0.5 uM Taq Man probe • 500 nM Rox • Adjust to 25 ul final volume with water
(§3) PCR cycles • 95 degrees C. 1 minute • 40 cycles of • 95 degrees C. 15 seconds • 60 degrees C. 1 minute.
(§4) Fluorescence of digested label was detected and quantified. […] The effect of other compounds on rRNA synthesis also were assessed in the assay, and provided in the table hereafter are IC50 values of selected compounds pertaining to rRNA synthesis and cMYC RNA synthesis.

[1] = system: cMYC RNA synthesis, HCT-116; assay: PCR control assay of C-myc transcription; format: cell-based; details: for pIC50: Homo sapiens, read-out: QPCRMYC IC50_HCT-116
Protocol: A control assay that detected effects of the compounds on C-myc transcription also was conducted using a primer/probe set purchased from ABI (TaqMan Gene Expression Assay with assay ID: Hs99999003_m1). The following assay protocol was utilized:
as §1, §2, §3, §4

nucleolin = biological target: T1, nucleolin (Homo sapiens, UniProt P19338); assay: Filter-binding assay of 32P-labeled quadruplexes and Nucleolin; details: for pKd: 0.2 nM 32P-labeled quadruplex, read-out: Kd, apparent dissociation constant of nucleolin protein and the nucleic acid ligand
T1 construct: without the N-terminal acidic stretches domain
T1 sequence (P19338 284-710 limits assumed): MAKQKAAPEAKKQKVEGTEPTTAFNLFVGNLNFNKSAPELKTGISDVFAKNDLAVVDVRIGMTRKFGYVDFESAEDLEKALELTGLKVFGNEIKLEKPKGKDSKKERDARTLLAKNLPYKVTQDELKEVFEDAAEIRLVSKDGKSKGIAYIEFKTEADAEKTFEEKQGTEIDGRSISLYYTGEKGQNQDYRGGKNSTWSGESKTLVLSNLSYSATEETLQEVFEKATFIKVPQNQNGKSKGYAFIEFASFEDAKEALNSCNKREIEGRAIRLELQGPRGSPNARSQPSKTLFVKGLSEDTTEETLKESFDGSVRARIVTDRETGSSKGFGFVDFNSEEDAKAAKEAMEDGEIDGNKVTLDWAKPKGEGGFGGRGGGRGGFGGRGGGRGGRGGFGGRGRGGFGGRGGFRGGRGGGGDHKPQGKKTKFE
Protocol: The assay also was conducted in a filter-binding format. […] The protein-quadruplex mixtures were incubated for 30 min at ambient temperature and filtered through mixed cellulose ester membrane filters (Millipore) with gentle suction. The filters were washed twice with […] of binding buffer, dried and OptiPhase ‘SuperMix’ scintillation cocktail (Perkin Elmer) was added to the wells. Radioactivity was assayed with MicroBeta scintillation counter (Perkin Elmer). Binding curves were constructed and apparent Kd's and Bmax's for the complexes were calculated using the GraphPad Prizm software program (GraphPad Software). In the following table, the nucleic acid ligand is designated in the first column using the nomenclature described herein; the second column provides the nucleotide sequence of the nucleic acid ligand; the third column is the conformation of the ligand as determined by circular dichroism (M is mixed, P is parallel, A is antiparallel, C is complex, SS is single-stranded and ND is not determined); the fourth column is the dissociation constant determined by the filter binding assay of nucleolin protein and the nucleic acid ligand; the fifth column is a Bmax constant determined by the filter binding assay, which is the percent of active nucleic acid ligand in each assay; and the sixth column presents the concentration of Compound A-1 required to dissociate half of the complexed nucleic acid ligand and nucleolin protein, as determined by the EMSA assay described above.

Work on O=C(NCCN1CCCC1)c1cn2c3c(c(NCCN4CCCC4)c(F)cc3c1=O)Oc1ccccc1-2 [Compound 1] yielded a pIC50 (rRNA synthesis, HCT-116) of 7.30 and a pIC50 [1] of 8.00.
CC(C)N1CCN(c2c(F)cc3c(=O)c(C(=O)NCCN4CCCC4)cn4c3c2Oc2cc(Cl)ccc2-4)CC1 [Compound 2] showed a pIC50 (rRNA synthesis, HCT-116) of 7.30 and a pIC50 [1] of 7.00.
In the case of CC(C)N1CCN(c2nc3c(cc2F)c(=O)c(C(=O)NCCC2CCCN2C)c2n(C)c4ccc(C#N)cc4n32)CC1 (centres unmarked) [Compound 3], the pIC50 (rRNA synthesis, HCT-116) was 7.30 and the “QPCRMYC IC50_HCT-116” value [1] was “INACTIVE”.
With “AGGGACCGGTGGGGCCGGGGCGGGG (DNA, backbone and methylation of C not given here; listed as Homo sapiens) [Compound 3468T]” the “Bmax, percent of active nucleic acid ligand” value (shortened to “Bmax, percent”) (nucleolin) was 21% and the pKd (nucleolin) was 8.62.
“AGGGACGCCTGGGGAAGGGAGGGGG (DNA, backbone and methylation of C not given here; listed as Homo sapiens) [Compound 1310T]” was tested, and the “Bmax, percent” value (nucleolin) was 50% and the pKd (nucleolin) was 8.36.
For “AGGGACGGGGACCGGCGGGCCACGGGG (DNA, backbone and methylation of C not given here; listed as Homo sapiens) [Compound 13236T]”, the pKd (nucleolin) was less than 7.52.
For “AGGGAGGACGCGGGGCCGGGGGGCGGAGACGGG (DNA, backbone and methylation of C not given here; listed as Homo sapiens) [Compound 8716T]”, the “Bmax, percent” value (nucleolin) was 49% and the pKd (nucleolin) was 8.51.
With “AGGGAGGGAGACGGGGGGG (DNA, backbone and methylation of C not given here; listed as Homo sapiens) [Compound 5701NT]” the “Bmax, percent” value (nucleolin) was 84% and the pKd (nucleolin) was 8.49.
In the case of “AGGGCGCGGGGTGGGGAGGG (DNA, backbone and methylation of C not given here; listed as Homo sapiens) [Compound 10951T]”, the “Bmax, percent” value (nucleolin) was 52% and the pKd (nucleolin) was 9.70.
With “AGGGCGGACGGGAGGGAGCGAGCGGGCGCGGGGG (DNA, backbone and methylation of C not given here; listed as Homo sapiens) [Compound 3500T]” the “Bmax, percent” value (nucleolin) was 20% and the pKd (nucleolin) was 8.96.
For “AGGGCGGGCGGCGGGGCGGG (DNA, backbone and methylation of C not given here; listed as Homo sapiens) [Compound 7499T]”, the “Bmax, percent” value (nucleolin) was 16% and the pKd (nucleolin) was 8.96.
“AGGGGACACCGGGGGGGCGCCGGGGG (DNA, backbone and methylation of C not given here; listed as Homo sapiens) [Compound 11888T]” was tested, and the “Bmax, percent” value (nucleolin) was 47% and the pKd (nucleolin) was 9.70.
“AGGGGAGGGGGGAGGACGGGGAGCGGGGG (DNA, backbone and methylation of C not given here; listed as Homo sapiens) [Compound 10985T]” was tested, and the “Bmax, percent” value (nucleolin) was 35% and the pKd (nucleolin) was 9.70.
In the case of “AGGGGCGGCGGGGAGGAGGAGGGGCGCGGGG (DNA, backbone and methylation of C not given here; listed as Homo sapiens) [Compound 7370T]”, the “Bmax, percent” value (nucleolin) was 16% and the pKd (nucleolin) was 8.96.
“AGGGGCGGCGGGGGAAGGGAGGGCGGGTGGAGGGGTCGGGAGGAACGGGGGGCGGG (DNA, backbone and methylation of C not given here; listed as Homo sapiens) [Compound 8440T]” was tested, and the “Bmax, percent” value (nucleolin) was 35% and the pKd (nucleolin) was 9.52.
For “AGGGGCGGGGGCGCGGGGAGGAGGGGTGGG (DNA, backbone and methylation of C not given here; listed as Homo sapiens) [Compound 9024T]”, the “Bmax, percent” value (nucleolin) was 43% and the pKd (nucleolin) was 9.52.
In the case of “AGGGGCTCCGGGGGCGGGGAGCGGGGCGTGGGCGGGAGGAGGGG (DNA, backbone and methylation of C not given here; listed as Homo sapiens) [Compound 10137T]”, the “Bmax, percent” value (nucleolin) was 65% and the pKd (nucleolin) was 9.40.
With “AGGGGGGAACGGGGGGCGGACGGGGCCGGGGGGGTAGGGCGGGGGG (DNA, backbone and methylation of C not given here; listed as Homo sapiens) [Compound 11345T]” the “Bmax, percent” value (nucleolin) was 32% and the pKd (nucleolin) was 9.52.
In the case of “AGGGGGTGGGCGCCGGGAGGGGGG (DNA, backbone and methylation of C not given here; listed as Homo sapiens) [Compound 8904T]”, the “Bmax, percent” value (nucleolin) was 31% and the pKd (nucleolin) was 9.40.
For “AGGGTGGGGCGGGGGAGGGCCGCGAGGGGGGTGCCCCGGGCGTGGGGGGGG (DNA, backbone and methylation of C not given here; listed as Homo sapiens) [Compound 10885T]”, the “Bmax, percent” value (nucleolin) was 82% and the pKd (nucleolin) was 9.70.
“AGGGTTAGGGTTAGGGTTAGGG [hTeI, reference compound]” gave a pKd (nucleolin) of less than 7.52.
For “GGAGGAGGAGGA (DNA, backbone not given here; listed as Homo sapiens) [GGA4, reference compound]”, the pKd (nucleolin) was less than 7.52.
For “GGGCCCGCGGGGGGAGGGGGAAGGGGCGGG (DNA, backbone and methylation of C not given here; listed as Homo sapiens) [Compound 6914T]”, the “Bmax, percent” value (nucleolin) was 50% and the pKd (nucleolin) was 9.10.
In the case of “GGGCCGGGACGGGGTCCGGGG (listed as DNA, chemistry not given here; listed as Homo sapiens) [Compound 13173NT]”, the pKd (nucleolin) was less than 7.52.
“GGGCGGGGGGGGCGGGGGG (DNA, backbone and methylation of C not given here; listed as Homo sapiens) [Compound 6534NT]” was tested, and the “Bmax, percent” value (nucleolin) was 51% and the pKd (nucleolin) was 8.96.
Work on “GGGCTGGGTCGGTCGGGCTGGGG (listed as DNA, chemistry not given here; listed as Homo sapiens) [Compound 10816NT]” yielded a pKd (nucleolin) of less than 7.52.
“GGGGGCGGGAACCCCCGGGCGCCTGTGGG (DNA, backbone and methylation of C not given here; listed as Homo sapiens) [Compound 6374NT]” was tested, and the “Bmax, percent” value (nucleolin) was 47% and the pKd (nucleolin) was 8.26.
“GGGGTGGGGGGGAGGG (listed as DNA, chemistry not given here; listed as Homo sapiens) [Compound 13079NT]” was tested, and the “Bmax, percent” value (nucleolin) was 37% and the pKd (nucleolin) was 8.59.
In the case of “GGGTCCGGAAGGGGAAGGGTGCCGGCGGGGAGAGAGGGTCGGGGG (DNA, backbone and methylation of C not given here; listed as Homo sapiens) [Compound 7253NT]”, the “Bmax, percent” value (nucleolin) was 60% and the pKd (nucleolin) was 9.40.
In the case of “GGGTCGGGGGGTGGGGCCCGGGCCGGGG (listed as DNA, chemistry not given here; listed as Homo sapiens) [Compound 2957NT]”, the “Bmax, percent” value (nucleolin) was 66% and the pKd (nucleolin) was 8.57.
With “GGGTGGACGGGGGGGCCTGGTGGGG (listed as DNA, chemistry not given here; listed as Homo sapiens) [Compound 1196NT]” the “Bmax, percent” value (nucleolin) was 41% and the pKd (nucleolin) was 8.38.
“GGGTGGCGGGGGGGAGAGGGGGG (listed as DNA, chemistry not given here; listed as Homo sapiens) [Compound 6960NT]” was tested, and the “Bmax, percent” value (nucleolin) was 68% and the pKd (nucleolin) was 9.30.
“GTCGTAACGTCGATCAGTTTACGACAT (DNA, backbone and methylation of C not given here; listed as Homo sapiens) [RND27, reference compound]” gave a pKd (nucleolin) of less than 7.52.
For “TGGGGAGGGTGGGGAGGGTGGGGAATT (DNA, backbone not given here; listed as Homo sapiens) [Myc27, reference compound]”, the “Bmax, percent” value (nucleolin) was 33% and the pKd (nucleolin) was 8.36.
